# Reference: ChEMBL document CHEMBL1136972, “Repenins A-D, four new antioxidative coumarinolignoids from Duranta repens Linn” (Bioorg Med Chem Lett, 2009)
# Tested on: Radical scavenging activity
# Assay: Antioxidant activity assessed as DPPH free radical scavenging activity
# Format: functional
row,IC50,Compound
1,420 µM,COc1cc(/C=C/C(=O)OC[C@H]2Oc3c(c(OC)cc4ccc(=O)oc34)O[C@@H]2c2ccc(O)c(OC)c2)ccc1O [REPENIN B]
2,450 µM,COc1cc([C@H]2Oc3c(OC)cc4ccc(=O)oc4c3O[C@@H]2COC(=O)/C=C/c2ccc(O)c(O)c2)ccc1O [REPENIN C]

# The remaining lines, values behind:
row,Compound,IC50
1,COc1ccc(O)c(C(C)(C)C)c1.COc1ccc(O)cc1C(C)(C)C [BUTYLATED HYDROXYANISOLE],43 µM
2,COc1cc([C@H]2Oc3c(OC)cc4ccc(=O)oc4c3O[C@@H]2CO)ccc1O [CLEOMISCOSIN A],612 µM
3,COc1cc([C@H]2Oc3c(OC)cc4ccc(=O)oc4c3O[C@@H]2COC(C)=O)ccc1O [DURANTIN A],625 µM
4,COc1cc([C@H]2Oc3c(OC)cc4ccc(=O)oc4c3O[C@@H]2COC(=O)/C=C/c2ccc(O)cc2)ccc1O [REPENIN A],530 µM
5,COc1cc([C@H]2Oc3c(OC)cc4ccc(=O)oc4c3O[C@@H]2COC(=O)c2ccc(O)c(O)c2)cc(OC)c1O [REPENIN D],510 µM
